Data as given in ChEMBL document CHEMBL5465560, “Selectivity Literature for EUbOPEN Chemogenomic Library” (2024).

Tests used:
[1] = biological target: Casein kinase I isoform alpha (Homo sapiens, UniProt P48729); experiment: Selectivity interaction (ActivX KiNativ screen (kinase selectivity in THP-1 cell lysates)) EUB0000639a CSNK1A1; assay type: subcellular; conditions: lysate, at 0.04 µM
[2] = biological target: Protein-tyrosine kinase 2-beta (Homo sapiens) (UniProt Q14289); experiment: Selectivity interaction (KinomeScan (DiscoverX)) EUB0000695a PTK2B; conditions: at 100 nM
Protein-tyrosine kinase 2-beta (Homo sapiens), sequence (Q14289 whole entry, looked up): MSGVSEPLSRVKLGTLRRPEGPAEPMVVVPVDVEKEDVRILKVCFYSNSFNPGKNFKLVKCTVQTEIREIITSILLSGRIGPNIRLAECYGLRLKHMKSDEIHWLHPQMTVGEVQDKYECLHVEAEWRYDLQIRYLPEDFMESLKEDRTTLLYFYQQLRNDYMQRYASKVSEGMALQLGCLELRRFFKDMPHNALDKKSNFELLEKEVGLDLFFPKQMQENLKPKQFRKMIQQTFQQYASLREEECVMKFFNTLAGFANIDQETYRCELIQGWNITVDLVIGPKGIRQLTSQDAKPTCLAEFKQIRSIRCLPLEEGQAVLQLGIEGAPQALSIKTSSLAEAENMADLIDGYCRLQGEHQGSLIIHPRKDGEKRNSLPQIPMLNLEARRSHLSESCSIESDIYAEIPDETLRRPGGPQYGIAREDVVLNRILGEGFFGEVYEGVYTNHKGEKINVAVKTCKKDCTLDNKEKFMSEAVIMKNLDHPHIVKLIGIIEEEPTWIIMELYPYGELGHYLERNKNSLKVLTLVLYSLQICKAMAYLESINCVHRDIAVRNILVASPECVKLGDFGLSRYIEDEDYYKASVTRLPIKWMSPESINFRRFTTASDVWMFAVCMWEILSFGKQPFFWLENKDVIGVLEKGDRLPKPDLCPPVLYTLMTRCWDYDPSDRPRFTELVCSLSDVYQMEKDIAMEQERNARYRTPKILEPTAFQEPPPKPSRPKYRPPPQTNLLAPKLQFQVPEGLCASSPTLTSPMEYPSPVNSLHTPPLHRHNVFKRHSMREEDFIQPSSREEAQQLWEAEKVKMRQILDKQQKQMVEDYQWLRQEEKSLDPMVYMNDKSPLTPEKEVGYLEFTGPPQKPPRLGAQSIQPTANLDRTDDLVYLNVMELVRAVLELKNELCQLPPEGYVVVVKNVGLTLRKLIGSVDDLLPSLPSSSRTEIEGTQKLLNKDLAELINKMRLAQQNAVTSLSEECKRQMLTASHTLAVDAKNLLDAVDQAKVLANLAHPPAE

[3] = biological target: Mitogen-activated protein kinase 14 (Homo sapiens, UniProt Q16539); conditions: at 10 µM
Mitogen-activated protein kinase 14, sequence (Q16539 whole entry, the tested form may be a part): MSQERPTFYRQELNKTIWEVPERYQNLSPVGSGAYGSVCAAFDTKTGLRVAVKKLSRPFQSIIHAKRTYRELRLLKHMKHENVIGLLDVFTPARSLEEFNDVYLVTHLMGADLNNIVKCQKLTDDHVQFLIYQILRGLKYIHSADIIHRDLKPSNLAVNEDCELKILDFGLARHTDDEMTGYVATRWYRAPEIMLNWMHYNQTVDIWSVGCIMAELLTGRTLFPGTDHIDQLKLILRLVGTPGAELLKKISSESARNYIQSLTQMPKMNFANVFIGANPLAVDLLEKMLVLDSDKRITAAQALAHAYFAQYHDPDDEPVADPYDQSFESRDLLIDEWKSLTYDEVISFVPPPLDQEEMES

[4] = biological target: T1, Discoidin domain-containing receptor 2 (Homo sapiens) (UniProt Q16832); experiment: Selectivity interaction (KinomeScan (DiscoverX)) EUB0001079a DDR2; conditions: at 1 µM
T1 sequence (whole entry): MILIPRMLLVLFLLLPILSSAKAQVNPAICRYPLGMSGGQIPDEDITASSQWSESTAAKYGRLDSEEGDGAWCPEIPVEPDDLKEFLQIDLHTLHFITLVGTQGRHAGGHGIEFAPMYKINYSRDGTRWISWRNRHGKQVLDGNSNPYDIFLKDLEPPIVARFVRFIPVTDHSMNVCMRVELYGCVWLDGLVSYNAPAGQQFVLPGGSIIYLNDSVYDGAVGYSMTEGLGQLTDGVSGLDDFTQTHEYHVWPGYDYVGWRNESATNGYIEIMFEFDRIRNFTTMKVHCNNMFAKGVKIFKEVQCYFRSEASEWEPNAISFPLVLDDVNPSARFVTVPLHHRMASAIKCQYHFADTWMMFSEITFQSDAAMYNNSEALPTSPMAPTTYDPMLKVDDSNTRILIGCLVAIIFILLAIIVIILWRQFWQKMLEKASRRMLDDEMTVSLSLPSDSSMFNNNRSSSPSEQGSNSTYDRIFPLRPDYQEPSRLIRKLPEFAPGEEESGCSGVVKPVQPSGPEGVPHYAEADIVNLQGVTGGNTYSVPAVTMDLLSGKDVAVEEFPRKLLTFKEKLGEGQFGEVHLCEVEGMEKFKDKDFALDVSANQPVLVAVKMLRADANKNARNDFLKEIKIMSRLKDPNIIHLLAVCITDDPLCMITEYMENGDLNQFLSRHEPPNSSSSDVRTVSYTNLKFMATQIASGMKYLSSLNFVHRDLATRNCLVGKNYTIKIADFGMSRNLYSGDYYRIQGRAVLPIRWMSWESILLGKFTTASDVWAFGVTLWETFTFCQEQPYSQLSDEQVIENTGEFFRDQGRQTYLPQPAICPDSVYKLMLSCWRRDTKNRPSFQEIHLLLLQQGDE

[5] = biological target: Cyclin-dependent kinase 2 (Homo sapiens, UniProt P24941); experiment: Selectivity interaction (KinomeScan (DiscoverX)) EUB0001079a CDK2; conditions: at 1 µM
[6] = biological target: T2, Inhibitor of nuclear factor kappa-B kinase subunit epsilon (Homo sapiens) (UniProt Q14164); experiment: Selectivity interaction (KinomeScan (DiscoverX)) EUB0000092b IKBKE; conditions: at 10 µM
T2 sequence (whole entry): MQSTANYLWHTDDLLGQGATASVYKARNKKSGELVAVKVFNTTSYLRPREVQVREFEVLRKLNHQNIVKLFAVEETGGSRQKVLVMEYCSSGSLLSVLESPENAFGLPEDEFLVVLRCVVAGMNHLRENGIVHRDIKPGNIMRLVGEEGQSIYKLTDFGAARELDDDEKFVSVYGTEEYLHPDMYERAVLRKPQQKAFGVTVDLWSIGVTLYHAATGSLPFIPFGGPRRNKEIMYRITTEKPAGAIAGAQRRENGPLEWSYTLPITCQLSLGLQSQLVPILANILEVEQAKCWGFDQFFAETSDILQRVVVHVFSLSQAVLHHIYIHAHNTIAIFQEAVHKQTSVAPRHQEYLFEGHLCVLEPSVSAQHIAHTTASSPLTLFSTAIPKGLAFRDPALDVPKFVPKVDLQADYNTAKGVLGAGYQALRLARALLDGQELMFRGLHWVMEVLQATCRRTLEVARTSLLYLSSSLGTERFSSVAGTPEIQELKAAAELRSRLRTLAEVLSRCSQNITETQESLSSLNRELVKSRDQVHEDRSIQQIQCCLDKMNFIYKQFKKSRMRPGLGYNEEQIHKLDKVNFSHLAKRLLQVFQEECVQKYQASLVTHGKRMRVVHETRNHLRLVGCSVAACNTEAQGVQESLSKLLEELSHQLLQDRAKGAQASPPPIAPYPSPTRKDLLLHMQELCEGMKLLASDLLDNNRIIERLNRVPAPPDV

[7] = biological target: T3, Interleukin-1 receptor-associated kinase 3 (Homo sapiens) (UniProt Q9Y616); experiment: Selectivity interaction (KinomeScan (DiscoverX)) EUB0001619a IRAK3; conditions: at 1 µM
T3 sequence (whole entry): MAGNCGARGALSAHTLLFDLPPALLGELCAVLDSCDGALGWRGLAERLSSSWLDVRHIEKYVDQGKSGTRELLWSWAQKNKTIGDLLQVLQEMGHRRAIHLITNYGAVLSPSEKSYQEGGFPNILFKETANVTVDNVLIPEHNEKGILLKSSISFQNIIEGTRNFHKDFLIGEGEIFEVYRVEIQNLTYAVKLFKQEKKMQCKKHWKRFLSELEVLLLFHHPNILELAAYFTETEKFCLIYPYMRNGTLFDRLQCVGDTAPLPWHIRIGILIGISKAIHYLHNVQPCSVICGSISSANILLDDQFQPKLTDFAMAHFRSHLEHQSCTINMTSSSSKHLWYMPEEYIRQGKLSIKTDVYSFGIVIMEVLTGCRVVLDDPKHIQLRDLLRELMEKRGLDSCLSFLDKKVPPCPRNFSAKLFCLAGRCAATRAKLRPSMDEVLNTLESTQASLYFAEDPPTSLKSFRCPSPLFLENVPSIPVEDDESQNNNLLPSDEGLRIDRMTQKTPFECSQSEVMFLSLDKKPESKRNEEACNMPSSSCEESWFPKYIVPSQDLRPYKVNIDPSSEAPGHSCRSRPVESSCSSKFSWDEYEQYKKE

[8] = biological target: Tyrosine-protein kinase FRK (Homo sapiens) (UniProt P42685); experiment: Selectivity interaction (KinomeScan (DiscoverX)) EUB0000618a FRK; conditions: at 10 µM
Tyrosine-protein kinase FRK (Homo sapiens), sequence (P42685 whole entry): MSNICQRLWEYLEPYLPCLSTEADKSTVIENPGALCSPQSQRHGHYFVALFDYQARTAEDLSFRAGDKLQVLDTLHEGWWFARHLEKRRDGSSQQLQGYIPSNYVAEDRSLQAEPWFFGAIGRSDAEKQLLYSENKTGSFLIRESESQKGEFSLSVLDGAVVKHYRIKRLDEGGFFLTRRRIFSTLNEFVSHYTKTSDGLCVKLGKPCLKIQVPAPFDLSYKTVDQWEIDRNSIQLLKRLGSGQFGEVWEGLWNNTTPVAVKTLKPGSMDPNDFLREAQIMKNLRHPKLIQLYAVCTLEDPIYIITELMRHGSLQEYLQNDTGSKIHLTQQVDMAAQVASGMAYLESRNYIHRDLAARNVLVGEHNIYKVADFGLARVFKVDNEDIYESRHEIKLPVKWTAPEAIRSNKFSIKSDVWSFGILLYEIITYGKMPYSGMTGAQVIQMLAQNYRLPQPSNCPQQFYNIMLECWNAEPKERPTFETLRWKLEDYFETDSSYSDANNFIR

[9] = biological target: 5-hydroxytryptamine receptor 2A (Homo sapiens, UniProt P28223); experiment: Selectivity interaction (Safety Panel 44tm (Eurofins)) EUB0000162b HTR2A; conditions: at 10 µM
5-hydroxytryptamine receptor 2A, sequence (P28223 whole entry): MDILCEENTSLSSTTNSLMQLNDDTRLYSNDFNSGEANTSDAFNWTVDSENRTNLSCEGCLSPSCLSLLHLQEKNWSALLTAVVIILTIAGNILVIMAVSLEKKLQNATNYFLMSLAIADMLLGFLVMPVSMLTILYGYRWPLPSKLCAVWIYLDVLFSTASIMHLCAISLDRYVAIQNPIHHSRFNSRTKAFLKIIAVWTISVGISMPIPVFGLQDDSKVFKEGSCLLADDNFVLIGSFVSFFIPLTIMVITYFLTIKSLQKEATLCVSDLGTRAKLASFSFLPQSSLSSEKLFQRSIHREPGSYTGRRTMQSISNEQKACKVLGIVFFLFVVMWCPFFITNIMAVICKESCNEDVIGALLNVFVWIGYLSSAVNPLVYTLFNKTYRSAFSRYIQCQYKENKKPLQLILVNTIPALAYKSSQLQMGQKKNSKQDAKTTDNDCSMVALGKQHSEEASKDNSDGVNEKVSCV

[10] = biological target: Wee1-like protein kinase (Homo sapiens) (UniProt P30291); experiment: Selectivity interaction (KinomeScan (DiscoverX)) EUB0000666a WEE1; conditions: at 10 µM
Wee1-like protein kinase (Homo sapiens), sequence (P30291 whole entry, looked up): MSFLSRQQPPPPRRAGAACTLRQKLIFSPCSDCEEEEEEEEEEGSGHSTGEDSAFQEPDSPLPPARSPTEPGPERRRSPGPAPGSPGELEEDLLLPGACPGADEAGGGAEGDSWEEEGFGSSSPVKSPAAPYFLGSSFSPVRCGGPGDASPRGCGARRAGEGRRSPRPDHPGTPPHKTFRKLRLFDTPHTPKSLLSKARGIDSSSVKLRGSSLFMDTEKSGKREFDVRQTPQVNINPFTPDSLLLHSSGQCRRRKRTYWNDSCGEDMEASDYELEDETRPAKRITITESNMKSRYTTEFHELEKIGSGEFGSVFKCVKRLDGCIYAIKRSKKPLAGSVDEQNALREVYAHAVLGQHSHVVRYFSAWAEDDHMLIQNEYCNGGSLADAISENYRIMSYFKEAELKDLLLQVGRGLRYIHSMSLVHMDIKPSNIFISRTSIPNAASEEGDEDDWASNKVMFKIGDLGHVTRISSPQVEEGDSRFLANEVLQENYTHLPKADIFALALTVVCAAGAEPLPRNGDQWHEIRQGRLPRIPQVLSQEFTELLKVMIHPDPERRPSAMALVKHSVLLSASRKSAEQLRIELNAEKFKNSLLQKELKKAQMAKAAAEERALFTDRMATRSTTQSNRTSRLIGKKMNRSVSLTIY

[11] = biological target: STE20/SPS1-related proline-alanine-rich protein kinase (Homo sapiens) (UniProt Q9UEW8); experiment: Selectivity interaction (Kinase panel (DSF assay)) EUB0001558a STK39

Casein kinase I isoform alpha, sequence (P48729 2-337 limits assumed): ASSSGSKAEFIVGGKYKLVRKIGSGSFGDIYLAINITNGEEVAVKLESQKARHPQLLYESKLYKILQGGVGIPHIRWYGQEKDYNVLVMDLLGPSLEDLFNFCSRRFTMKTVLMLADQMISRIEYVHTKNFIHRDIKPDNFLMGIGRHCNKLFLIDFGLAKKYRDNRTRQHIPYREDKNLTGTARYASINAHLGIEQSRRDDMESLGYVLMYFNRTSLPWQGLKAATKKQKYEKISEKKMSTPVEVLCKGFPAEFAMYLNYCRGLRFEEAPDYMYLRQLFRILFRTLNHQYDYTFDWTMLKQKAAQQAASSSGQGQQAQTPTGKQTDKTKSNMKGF

## CC[C@@H]1[C@H](F)C(=O)N[C@@H]1COc1nccc2cc(C(N)=O)c(OC)cc12 [ZIMLOVISERTIB]
[1]
  % of inhibition: -2.5%

## Cc1cc(F)c(C(=O)Nc2cccc(-c3nncn3C(C)C)n2)cc1-n1cnc(C2CC2)c1
[2]
  % of control: 100%

## CCN(CC)CCCCNc1ncc2cc(-c3cc(OC)cc(OC)c3)c(NC(=O)NC(C)(C)C)nc2n1
[3]
  % of control: 100%

## Nc1cnc(N2CCc3cc(S(=O)(=O)Nc4c(F)cc(Cl)cc4F)cc(N4CCCC4=O)c32)nc1 [TP-020n]
[4]
  % of control: 100%
[5]
  % of control: 100%

## CCC(=O)N1CCN(c2ccc(-n3c(=O)ccc4cnc5ccc(-c6cnc7ccccc7c6)cc5c43)cc2C(F)(F)F)CC1
[6]
  % of control: 87%

## N#Cc1cccc(-c2c[nH]c3ncnc(N4CCOCC4)c23)c1
[7]
  % of control: 74%

## O[C@H]1CC[C@H](Nc2ncc3nc(Nc4c(F)cc(F)cc4F)n([C@H]4CCOC4)c3n2)CC1
[8]
  % of control: 100%

## CN(C)C(=O)Cn1cc(-c2ccc(-c3cncc4ccccc34)cc2)cn1
[9]
  % of control: 87%

## O=C(NOC[C@H](O)CO)c1ccc(F)c(F)c1Nc1ccc(I)cc1F
[10]
  % of control: 67%

## CC(C)(O)[C@H](F)CN1Cc2cc(NC(=O)c3cnn4cccnc34)c(N3CCOCC3)cc2C1=O
[11]
  dTM: 0.2 K
